# Reference: ChEMBL document CHEMBL4270560, “Novel curcumin analogue hybrids: Synthesis and anticancer activity” (Eur J Med Chem, 2018)
# How the values were obtained:
# [1] = test system: MGC-803; assay: Antiproliferative activity against human MGC803 cells after 48 hrs by MTT assay; assay type: functional, cell-based; conditions: MGC-803, 48 h
# [2] = test system: U-87 MG; assay: Antiproliferative activity against human U87 cells after 48 hrs by MTT assay; assay type: functional, cell-based, U-87MG ATCC
# [3] = test system: SMMC-7721; assay: Antiproliferative activity against human SMMC7721 cells after 48 hrs by MTT assay; assay type: functional, cell-based; conditions: SMMC-7721, 48 h
# [4] = test system: SGC-7901; assay: Antiproliferative activity against human SGC7901 cells after 48 hrs by MTT assay; assay type: functional, cell-based; conditions: SGC-7901, 48 h
# [5] = test system: SGC-7901; assay: Induction of mitochondrial membrane depolarization in human SGC7901 cells assessed as cells with mitochondrial membrane potential loss after 48 hrs by JC-1 staining based flow cytometric analysis (reference value: 9.29%); assay type: functional
# [6] = test system: SGC-7901; assay: Induction of mitochondrial membrane depolarization in human SGC7901 cells assessed as cells with intact mitochondrial membrane potential after 48 hrs by JC-1 staining based flow cytometric analysis (reference value: 87.3%); assay type: functional
SMILES,IC50 [1] [µM],IC50 [2] [µM],IC50 [3] [µM],IC50 [4] [µM],Activity [5] [%],Activity [6] [%]
COc1cc(OC)c2c(=O)c(OCCCCOc3ccc(/C=C/C(=O)/C=C/c4ccccn4)cc3)c(-c3cc(OC)c(OC)c(OC)c3)oc2c1,1.96,4.69,1.69,2.41,–,–
COc1cccc2c1C(=O)c1c(O)c3c(c(O)c1C2=O)C[C@@](O)(C(=O)CO)C[C@@H]3O[C@H]1C[C@H](N)[C@H](O)[C@H](C)O1 [DOXORUBICIN],0.4,0.48,0.73,0.87,–,–
COc1ccc(/C=C/C(=O)/C=C/c2ccc(Oc3cc(=O)oc4ccccc34)cc2)cc1OC,49.4,–,–,49.4,–,–
N#CC(C#N)=NNc1cccc(Cl)c1 [CARBONYL CYANIDE M-CHLOROPHENYLHYDRAZONE],–,–,–,–,64.6,27.7
O=C(/C=C/c1ccc(Oc2cc(=O)oc3ccccc23)cc1)/C=C/c1cccnc1,24.5,37,33.4,17.4,–,–
COc1cc(OC)c2c(=O)c(OCCCCOc3ccccc3/C=C/C(=O)/C=C/c3cccc([N+](=O)[O-])c3)c(-c3cc(OC)c(OC)c(OC)c3)oc2c1,5.06,10,7.31,4.03,–,–
COc1cc(OC)c2c(=O)c(OCCCCOc3ccccc3/C=C/C(=O)/C=C/c3ccc(Cl)cc3)c(-c3cc(OC)c(OC)c(OC)c3)oc2c1,18.6,21.1,41.7,9.15,–,–
O=C(/C=C/c1ccc(Cl)cc1)/C=C/c1ccc(Oc2cc(=O)oc3ccccc23)cc1,55.2,–,–,48.3,–,–
O=C(/C=C/c1ccc(Oc2cc(=O)oc3ccccc23)cc1)/C=C/c1ccccn1,19.4,50.8,35.4,25.2,–,–

# Second part, led by results:
IC50 [1] [µM],IC50 [2] [µM],IC50 [3] [µM],IC50 [4] [µM],SMILES,Activity [5] [%],Activity [6] [%]
31.7,40.4,34.3,49.4,COc1cc(OC)c2c(=O)c(OCCCOc3ccc(/C=C/C(=O)/C=C/c4scnc4C)cc3)c(-c3cc(OC)c(OC)c(OC)c3)oc2c1,–,–
7.9,10.7,8.48,8.98,COc1cc(OC)c2c(=O)c(OCCCCOc3ccccc3/C=C/C(=O)/C=C/c3ccco3)c(-c3cc(OC)c(OC)c(OC)c3)oc2c1,–,–
5.73,7.92,9.2,5.4,COc1cc(OC)c2c(=O)c(OCCCOc3ccccc3/C=C/C(=O)/C=C/c3cccc([N+](=O)[O-])c3)c(-c3cc(OC)c(OC)c(OC)c3)oc2c1,–,–
5.57,9.63,7.21,4.78,COc1cc(OC)c2c(=O)c(OCCCOc3ccccc3/C=C/C(=O)/C=C/c3scnc3C)c(-c3cc(OC)c(OC)c(OC)c3)oc2c1,–,–
54.6,58.7,65,42,COc1cc(OC)c2c(=O)c(OCCCCOc3ccc(/C=C/C(=O)/C=C/c4scnc4C)cc3)c(-c3cc(OC)c(OC)c(OC)c3)oc2c1,–,–
20.5,21.1,14.9,26.5,COc1cc(OC)c2c(=O)c(OCCCCOc3ccccc3/C=C/C(=O)/C=C/c3cccs3)c(-c3cc(OC)c(OC)c(OC)c3)oc2c1,–,–
